This is an account of results in paper PMC2921063 (Cancer Chemotherapy and Pharmacology, 2010).

The test system of one assay is alemtuzumab. Briefly: Cognate antibody binding to peptide beads, alemtuzumab. The following applies: 10 μm TentaGel beads; flow cytometry and fluorescent microscopy.
The test system of another assay is rituximab. Kind of assay: Cognate antibody binding to peptide beads, rituximab. The settings on record: 10 μm TentaGel beads; flow cytometry and fluorescent microscopy.
Assay [1] is described as follows: Alemtuzumab bead-based detection in normal human serum. Format: binding. The following applies: alemtuzumab titrated into normal human serum; fluorescent secondary anti-human IgG; flow cytometry.

Consider ACGSLSPSSCGGGS [pCp-1T], for which, in the assay on alemtuzumab, the “antibody binding to peptide beads” value was “Specific cognate antibody binding was confirmed”. As to ACPTSNPSLCGGGS [pRTX-10T], the “antibody binding to peptide beads” value with rituximab was “Specific cognate antibody binding was confirmed”. As for “alemtuzumab: anti-CD52 monoclonal antibody (Genzyme)”, in assay [1], the “bead fluorescence vs alemtuzumab concentration” value is on record as “fluorescent signals correlated with the alemtuzumab concentration”.
